Measurements from patent US20130245081A1, “Compositions and Methods for Treating Amyotrophic Lateral Sclerosis” (priority 2009, published 2013).
“And” between values parts separate entries of the source, which are not always exact repeats. Equal entries are not always repeated. Where two headings read alike, the source gives them in different places.

Key:
clinical = details: human, in vivo
Experimental: Pharmacokinetic analyses were based on data from 20 subjects in the 25 mg Q12H (n=8), 75 mg Q12H (n=8), and 150 mg Q12H (n=4) groups.

healthy adult subjects = tested on: healthy adult subjects
Experimental: In both studies, safety was assessed by periodic measurement of vital signs, 12-lead ECGs, physical examinations, clinical laboratory parameters, and reports of adverse events. Baseline vital signs and changes from baseline were summarized with descriptive statistics by body position (supine or standing), dose level, and time point. Additionally, the number of subjects with substantial increases or decreases in blood pressure (>20 mmHg) and heart rate (>15 bpm) were tabulated by dose level and visit. The arithmetic mean of 3 readings of blood pressure and heart rate at each visit/position was used for the analysis. The shift from baseline for physical examination results was tabulated by body system, visit, and dose level. The overall ECG findings were summarized using a shift table comparing post-baseline visits to baseline. Laboratory parameters were summarized at each timepoint, including changes from baseline by dose level. In addition, abnormal values outside normal ranges were flagged. All safety data were summarized with descriptive statistics by dose group.
In the first study, subjects remained in the clinic for 72 hours after dosing, during which time they were monitored for safety and tolerability, and later returned to the clinic for a brief follow-up visit 7 days post-dose for clinical and laboratory assessments. In the second study, end-of-treatment evaluations were performed on Day 9, approximately 48 hours after the final dose, and subjects were discharged from the clinic for an outpatient visit on Day 10 and a follow-up visit on Day 14.

patients with ALS = details: for subjects who died (incl. after discontinuation): double-blind period through Week 28; for total number of deaths: first 24-week randomized active treatment period

CCCN[C@@H]1CCc2nc(N)sc2C1 [dexpramipexole, (6R)-2-amino-4,5,6,7-tetrahydro-6-(propylamino)benzothiazole]
dose linearity of pharmacokinetics (clinical): linear
Tmax (clinical; 25 mg): 1.77 h
Tmax (clinical; 75 mg): 1.82 h
Tmax (clinical; 150 mg): 1.7 h
half-life (clinical; 150 mg): 398 to 524 min
drug effect on vital signs, physical examinations, ECG, hematology and urinalysis (healthy adult subjects; either study): no evidence
serious adverse events or adverse events that led to early discontinuation (healthy adult subjects; either study): No serious adverse events
subjects reporting dizziness (healthy adult subjects; first study): 3 subjects
subjects reporting headache (healthy adult subjects; second study): 5 subjects
safety and tolerability (healthy adult subjects; single doses up to 300 mg, multiple doses up to 150 mg twice daily for 4½ days): safe and well tolerated
Unadjusted Slope Estimate, Bulbar (patients with ALS; 50 mg): −0.364
Unadjusted Slope Estimate, Fine (patients with ALS; 50 mg): −0.311
Unadjusted Slope Estimate, Gross (patients with ALS; 50 mg): −0.305
Unadjusted Slope Estimate, Resp (patients with ALS; 50 mg): −0.270
Zero Imputation Slope Estimate, Bulbar (patients with ALS; 50 mg): −0.578
Zero Imputation Slope Estimate, Fine (patients with ALS; 50 mg): −0.440
Zero Imputation Slope Estimate, Gross (patients with ALS; 50 mg): −0.390
Zero Imputation Slope Estimate, Resp (patients with ALS; 50 mg): −0.575
joint rank test of survival and ALSFRS-R (generalized Gehan Wilcoxon test) (patients with ALS; 50 mg versus 300 mg, through Week 28, p=0.046): statistically significant difference
McGill SIS, Mean (SE) (patients with ALS; 50 mg, Endpoint of Part 2): 5.9 (0.38)
McGill SIS, Mean Δ (SE) from baseline (patients with ALS; 50 mg, Endpoint of Part 2): −0.5 (0.27)
McGill SIS, Median Δ (patients with ALS; 50 mg, Endpoint of Part 2): 0.0
Upright Vital Capacity, Mean (SE) (patients with ALS; 50 mg, Endpoint of Part 2): 62.2 (4.19) % predicted
Upright Vital Capacity, Mean Δ (SE) from baseline of Part 2 (patients with ALS; 50 mg, Endpoint of Part 2): −14.6 (3.54) % predicted
Upright Vital Capacity, Median Δ (patients with ALS; 50 mg, Endpoint of Part 2): −11.5 % predicted
McGill SIS, Mean (SE) (patients with ALS; 50 mg, Week 8): 6.2 (0.37)
McGill SIS, Mean Δ (SE) from baseline (patients with ALS; 50 mg, Week 8): −0.2 (0.19)
McGill SIS, Median Δ (patients with ALS; 50 mg, Week 8): 0.0
Upright Vital Capacity, Mean (SE) (patients with ALS; 50 mg, Week 8): 73.7 (2.92) % predicted
Upright Vital Capacity, Mean Δ (SE) from baseline of Part 2 (patients with ALS; 50 mg, Week 8): −3.2 (1.67) % predicted
Upright Vital Capacity, Median Δ (patients with ALS; 50 mg, Week 8): −1.9 % predicted
McGill SIS, Mean (SE) (patients with ALS; 50 mg, Week 12): 6.5 (0.34)
McGill SIS, Mean Δ (SE) from baseline (patients with ALS; 50 mg, Week 12): −0.1 (0.20)
McGill SIS, Median Δ (patients with ALS; 50 mg, Week 12): 0.0
Upright Vital Capacity, Mean (SE) (patients with ALS; 50 mg, Week 12): 72.9 (3.82) % predicted
Upright Vital Capacity, Mean Δ (SE) from baseline of Part 2 (patients with ALS; 50 mg, Week 12): −4.0 (2.19) % predicted
Upright Vital Capacity, Median Δ (patients with ALS; 50 mg, Week 12): −3.1 % predicted
McGill SIS, Mean (SE) (patients with ALS; 50 mg, Week 16): 6.1 (0.37)
McGill SIS, Mean Δ (SE) from baseline (patients with ALS; 50 mg, Week 16): −0.3 (0.22)
McGill SIS, Median Δ (patients with ALS; 50 mg, Week 16): 0.0
McGill SIS, Mean (SE) (patients with ALS; 50 mg, Week 20): 6.1 (0.33)
McGill SIS, Mean Δ (SE) from baseline (patients with ALS; 50 mg, Week 20): −0.7 (0.22)
McGill SIS, Median Δ (patients with ALS; 50 mg, Week 20): −1.0
Upright Vital Capacity, Mean (SE) (patients with ALS; 50 mg, Week 20): 75.8 (4.02) % predicted
Upright Vital Capacity, Mean Δ (SE) from baseline of Part 2 (patients with ALS; 50 mg, Week 20): −6.0 (3.36) % predicted
Upright Vital Capacity, Median Δ (patients with ALS; 50 mg, Week 20): −7.2 % predicted
McGill SIS, Mean (SE) (patients with ALS; 50 mg, Week 24): 6.3 (0.43)
McGill SIS, Mean Δ (SE) from baseline (patients with ALS; 50 mg, Week 24): −0.4 (0.23)
McGill SIS, Median Δ (patients with ALS; 50 mg, Week 24): 0.0
McGill SIS, Mean (SE) (patients with ALS; 50 mg, Week 28): 5.9 (0.45)
McGill SIS, Mean Δ (SE) from baseline (patients with ALS; 50 mg, Week 28): −0.7 (0.23)
McGill SIS, Median Δ (patients with ALS; 50 mg, Week 28): 0.0
Upright Vital Capacity, Mean (SE) (patients with ALS; 50 mg, Week 28): 69.5 (3.79) % predicted
Upright Vital Capacity, Mean Δ (SE) from baseline of Part 2 (patients with ALS; 50 mg, Week 28): −12.4 % predicted and −12.4 (3.00) % predicted
Upright Vital Capacity, Median Δ (patients with ALS; 50 mg, Week 28): −10.4 % predicted
decline in ALSFRS-R scores (repeated measures mixed effect model) (patients with ALS; 50 mg, Week 28): −7.05
subjects who died (incl. after discontinuation) (patients with ALS; 50 mg): 9 (19%) N (%) and 9 N (%)
total number of deaths (patients with ALS; 50 mg): 7
did not require tracheostomy and did not die (patients with ALS; 50 mg, through Week 28): 81%
mean change from baseline in ALSFRS-R total score (patients with ALS; 50 mg, through Week 28): −6.5
slope estimate of ALSFRS-R scores (linear mixed effects model) (patients with ALS; 50 mg, through Week 28): −1.283
slope of ALSFRS-R total scores, zero imputed for first post-death visit (patients with ALS; 50 mg, through Week 28): −2.05
slope of upright vital capacity (linear mixed effects, unadjusted) (patients with ALS; 50 mg, through Week 28): −2.452
subjects with feeding tubes placed (patients with ALS; 50 mg, through Week 28): 9 (19%) N (%)
Unadjusted Slope Estimate, Bulbar (patients with ALS; 300 mg): −0.310
Unadjusted Slope Estimate, Fine (patients with ALS; 300 mg): −0.211
Unadjusted Slope Estimate, Gross (patients with ALS; 300 mg): −0.320
Unadjusted Slope Estimate, Resp (patients with ALS; 300 mg): −0.186
Zero Imputation Slope Estimate, Bulbar (patients with ALS; 300 mg): −0.376
Zero Imputation Slope Estimate, Fine (patients with ALS; 300 mg): −0.238
Zero Imputation Slope Estimate, Gross (patients with ALS; 300 mg): −0.338
Zero Imputation Slope Estimate, Resp (patients with ALS; 300 mg): −0.255
attenuation of decline in vital capacity (adjusted slopes) (patients with ALS; 300 mg compared with 50 mg): 21% and 18%
Unadjusted Slope Estimate, Bulbar, % reduction (patients with ALS; 300 mg vs 50 mg): 14.84%
Unadjusted Slope Estimate, Fine, % reduction (patients with ALS; 300 mg vs 50 mg): 32.15%
Unadjusted Slope Estimate, Gross, % reduction (patients with ALS; 300 mg vs 50 mg): −4.92%
Unadjusted Slope Estimate, Resp, % reduction (patients with ALS; 300 mg vs 50 mg): 31.11%
Zero Imputation Slope Estimate, Bulbar, % reduction (patients with ALS; 300 mg vs 50 mg): 34.95%
Zero Imputation Slope Estimate, Fine, % reduction (patients with ALS; 300 mg vs 50 mg): 45.91%
Zero Imputation Slope Estimate, Gross, % reduction (patients with ALS; 300 mg vs 50 mg): 13.33%
Zero Imputation Slope Estimate, Resp, % reduction (patients with ALS; 300 mg vs 50 mg): 55.65%
reduction in decline of ALSFRS-R slope, zero imputation (patients with ALS; 300 mg vs 50 mg): 42%
smaller decline in ALSFRS-R scores (repeated measures model) (patients with ALS; 300 mg vs 50 mg, Week 28): 19.7%
McGill SIS, Mean (SE) (patients with ALS; 300 mg, Endpoint of Part 2): 6.1 (0.35)
McGill SIS, Mean Δ (SE) from baseline (patients with ALS; 300 mg, Endpoint of Part 2): −0.8 (0.30)
McGill SIS, Median Δ (patients with ALS; 300 mg, Endpoint of Part 2): −1.0
Upright Vital Capacity, Mean (SE) (patients with ALS; 300 mg, Endpoint of Part 2): 61.1 (3.94) % predicted
Upright Vital Capacity, Mean Δ (SE) from baseline of Part 2 (patients with ALS; 300 mg, Endpoint of Part 2): −20.3 (2.88) % predicted
Upright Vital Capacity, Median Δ (patients with ALS; 300 mg, Endpoint of Part 2): −14.3 % predicted
McGill SIS, Mean (SE) (patients with ALS; 300 mg, Week 8): 6.9 (0.32)
McGill SIS, Median Δ (patients with ALS; 300 mg, Week 8): 0.0
Upright Vital Capacity, Mean (SE) (patients with ALS; 300 mg, Week 8): 80.3 (3.20) % predicted
Upright Vital Capacity, Mean Δ (SE) from baseline of Part 2 (patients with ALS; 300 mg, Week 8): −1.4 (0.91) % predicted
Upright Vital Capacity, Median Δ (patients with ALS; 300 mg, Week 8): −0.8 % predicted
McGill SIS, Mean (SE) (patients with ALS; 300 mg, Week 12): 6.5 (0.37)
McGill SIS, Mean Δ (SE) from baseline (patients with ALS; 300 mg, Week 12): −0.4 (0.25)
McGill SIS, Median Δ (patients with ALS; 300 mg, Week 12): 0.0
Upright Vital Capacity, Mean (SE) (patients with ALS; 300 mg, Week 12): 78.5 (3.34) % predicted
Upright Vital Capacity, Mean Δ (SE) from baseline of Part 2 (patients with ALS; 300 mg, Week 12): −4.2 (1.91) % predicted
Upright Vital Capacity, Median Δ (patients with ALS; 300 mg, Week 12): −4.3 % predicted
McGill SIS, Mean (SE) (patients with ALS; 300 mg, Week 16): 6.4 (0.33)
McGill SIS, Mean Δ (SE) from baseline (patients with ALS; 300 mg, Week 16): −0.4 (0.23)
McGill SIS, Median Δ (patients with ALS; 300 mg, Week 16): 0.0
McGill SIS, Mean (SE) (patients with ALS; 300 mg, Week 20): 6.4 (0.34)
McGill SIS, Mean Δ (SE) from baseline (patients with ALS; 300 mg, Week 20): −0.5 (0.30)
McGill SIS, Median Δ (patients with ALS; 300 mg, Week 20): 0.0
Upright Vital Capacity, Mean (SE) (patients with ALS; 300 mg, Week 20): 70.8 (3.77) % predicted
Upright Vital Capacity, Mean Δ (SE) from baseline of Part 2 (patients with ALS; 300 mg, Week 20): −10.6 (1.58) % predicted
Upright Vital Capacity, Median Δ (patients with ALS; 300 mg, Week 20): −9.0 % predicted
McGill SIS, Mean (SE) (patients with ALS; 300 mg, Week 24): 6.3 (0.36)
McGill SIS, Mean Δ (SE) from baseline (patients with ALS; 300 mg, Week 24): −0.7 (0.30)
McGill SIS, Median Δ (patients with ALS; 300 mg, Week 24): 0.0
McGill SIS, Mean (SE) (patients with ALS; 300 mg, Week 28): 6.0 (0.38)
McGill SIS, Mean Δ (SE) from baseline (patients with ALS; 300 mg, Week 28): −0.9 (0.31)
McGill SIS, Median Δ (patients with ALS; 300 mg, Week 28): −1.0
Upright Vital Capacity, Mean (SE) (patients with ALS; 300 mg, Week 28): 67.3 (4.44) % predicted
Upright Vital Capacity, Mean Δ (SE) from baseline of Part 2 (patients with ALS; 300 mg, Week 28): −15.1 % predicted and −15.1 (2.63) % predicted
Upright Vital Capacity, Median Δ (patients with ALS; 300 mg, Week 28): −11.5 % predicted
decline in ALSFRS-R scores (repeated measures mixed effect model) (patients with ALS; 300 mg, Week 28): −5.66
subjects who died (incl. after discontinuation) (patients with ALS; 300 mg): 3 (7%) N (%) and 3 N (%)
total number of deaths (patients with ALS; 300 mg): 2
did not require tracheostomy and did not die (patients with ALS; 300 mg, through Week 28): 93%
mean change from baseline in ALSFRS-R total score (patients with ALS; 300 mg, through Week 28): −6.2
slope estimate of ALSFRS-R scores (linear mixed effects model) (patients with ALS; 300 mg, through Week 28): −1.021
slope of ALSFRS-R total scores, zero imputed for first post-death visit (patients with ALS; 300 mg, through Week 28): −1.19
slope of upright vital capacity (linear mixed effects, unadjusted) (patients with ALS; 300 mg, through Week 28): −3.067
subjects with feeding tubes placed (patients with ALS; 300 mg, through Week 28): 6 (14%) N (%)
